# Test results published in US20250109127A1, “METHODS OF USE OF PHENOXYPROPYLAMINE COMPOUNDS TO TREAT DEPRESSION” (Minerva Neurosciences, Inc., priority 2013, published 2025).
# Several values for one entry are separate records, joined by “and”; a condition that tells them apart may be missing. Equal values may be shown once. Where a name gives a salt, the structure may show the parent alone.
# Tested on: norepinephrin release in the rat prefrontal cortex
# Test: Microdialysis: norepinephrine release in prefrontal cortex after I.P. administration
# Assay type: in vivo
# Conditions: for NOREPINEPHRIN (% of respective basal), individual animal: 0.3 mg/kg I.P., c2-c9 = R#11,12,18,23,29,30,17,24; for NOREPINEPHRIN (% of respective basal), individual animal / Norepinephrin release, individual animals: hydrochloride; for Norepinephrin release, MEAN / Norepinephrin release, individual animals: 3 mg/kg IP; for Norepinephrin release, MEAN: n = 8; for Norepinephrin release, individual animals: per animal R#15,16,21,22,27,28,09,10
# Description: The aim of the study was to evaluate, using microdialysis, the effects of an intraperitoneal (I.P.) administration in rats of three different doses of SON-117 on dopamine and its metabolites, serotonin and its metabolite (5-HIAA), and norepinephrine levels in prefrontal cortex.
# Thirty-two adult male Wistar rats were used for the whole study (4 groups of eight animals planned for the study, Table 1).
# Surgery was performed on rats weighing about 300 g at the beginning of the experiments. Rats were anaesthetized with Ketamine (50 mg/kg) & Xylazine (15 mg/kg) by intramuscular administration. The animals were placed in a stereotaxic apparatus in the flat-skull position at a constant setting of −3.3 mm between ear bars and the incisor bar. The animals were treated with a local anesthesic (xylocaine 1%, Astra Zeneca) and an analgesic (Temgesic, from Schering Plough, 0.05 mg/kg, s.c.). A rostrocaudal midline incision was made with a lancet to expose the dorsal skull surface. The “stereotaxic zero” was defined by the Bregma in accordance with Paxinos and Watson's atlas (1986). A hole was drilled in the skull with a drill and the meninges were pierced with a sterile needle to implant a CMA12 guide cannula which later received the dialysis probe.
# Coordinates used for implanting guide cannula in prefrontal cortex from Bregma were anteroposterior 3.7 mm, mediolateral 0.8 mm, and dorsoventral −2 mm (top of the probe was at −5 mm). The guide cannula was fixed to the skull with two stainless steel screws (1.88 mm outside diameter) anchored. An application of dental cement was added. A plastic collar allowed each animal to be tethered to a Swivel assembly of the CMA 120 awake animal system. Following surgery, rats were kept in individual cages and allowed to recover for a minimum of 3-5 days before the experimentation. The rats were handled and put in plastic bowl for 10 min at least every day to habituate the animals to their new environment for the dialysis. An I.P. administration with saline was also performed every day.
# Dialysis probes (CMA12/3 mm, membrane, 20 kD cut-off, Carnegie Medicine, Stockholm, Sweden), were carefully washed before inserting into the guide cannula. The wash was performed with the artificial cerebrospinal fluid (aCSF) medium (NaCl 147 mM, KCl 2.7 mM, CaCl2 1.2 mM, MgCl2 0.85 mM) at room temperature. The dialysis system was then equilibrated at 20° C. at a perfusion rate of 1 μl/min with a Carnegie pump (CMA100). All catheters (FEP tubing, internal volume of 1.2 μl/10 cm, and tubing adaptors) used for microdialysis were treated in the same conditions.
# The probes duly prepared were inserted into the guide cannula and the CMA120 Swivel assembly secured to the animal using a plastic collar. Flow through the dialysis probe with aCSF was maintained at a rate of 1 μl/min during the whole experimentation. The first four fractions (corresponding to 2 hours) were discarded to avoid the effects of parenchymal disturbance and to ensure that an approximate steady-state level was reached. Fractions were then collected over a period of 8.5 h during which time the animals remained quiet. The dialysates were automatically collected with an autosampler (microfraction collector CMA 140, Carnegie Medicin) and stored at −80° C. until analysis. […] Perfusion was then maintained for 7 hours with aCSF. The dialysates (30 μl) were collected into 300 μl vials, transferred into dry ice and then kept frozen (−80° C.) until analysis. Frozen samples were shipped to a partner for analysis. At the end of the microdialysis study, a PBS with colored ink was perfused through the probe in order to visualize the dialyzed area.
# Catecholamine assay: Concentrations of dopamine, DOPAC, HVA, 5-HIAA, 5-HT, and norepinephrin were determined for each sample by HPLC coupled with electrochemical detection. […]
structure (smiles),measurement,setting,value
"Cc1nnc(-c2cc3c(OC[C@@H](O)CN4CCC(c5ccc(Cl)c(Cl)c5)CC4)cccc3o2)o1 [SON-117, (S)-1-(4-(3,4-dichlorophenyl)piperidino)-3-(2-(5-methyl-1,3,4-oxadiazol-2-yl)benzo(b)furan-4-yloxy)-2-propanol hydrochloride]","NOREPINEPHRIN (% of respective basal), individual animal",T0-T30 min,93.23 % of respective basal and 109.66 % of respective basal and 94.50 % of respective basal and 91.56 % of respective basal and 103.16 % of respective basal and 122.80 % of respective basal and 169.48 % of respective basal and 88.04 % of respective basal
same,"NOREPINEPHRIN (% of respective basal), individual animal",T30-T1 h,104.42 % of respective basal and 107.28 % of respective basal and 98.29 % of respective basal and 99.12 % of respective basal and 108.78 % of respective basal and 113.81 % of respective basal and 113.33 % of respective basal and 88.14 % of respective basal
same,"NOREPINEPHRIN (% of respective basal), individual animal",T1 h 30-T2 h,99.20 % of respective basal and 86.76 % of respective basal and 108.98 % of respective basal and 92.71 % of respective basal and 104.84 % of respective basal and 66.21 % of respective basal and 122.80 % of respective basal and 84.63 % of respective basal
same,"NOREPINEPHRIN (% of respective basal), individual animal",T1 h-T1 h 30,86.88 % of respective basal and 98.78 % of respective basal and 112.17 % of respective basal and 98.26 % of respective basal and 98.75 % of respective basal and 106.99 % of respective basal and 111.81 % of respective basal and 90.76 % of respective basal
same,"NOREPINEPHRIN (% of respective basal), individual animal",T2 h 30-T3 h,84.23 % of respective basal and 104.60 % of respective basal and 128.99 % of respective basal and 92.07 % of respective basal and 101.47 % of respective basal and 118.46 % of respective basal and 126.06 % of respective basal and 98.73 % of respective basal
same,"NOREPINEPHRIN (% of respective basal), individual animal",T2 h-T2 h 30,76.65 % of respective basal and 101.56 % of respective basal and 126.15 % of respective basal and 88.09 % of respective basal and 101.06 % of respective basal and 105.86 % of respective basal and 113.08 % of respective basal and 89.61 % of respective basal
same,"NOREPINEPHRIN (% of respective basal), individual animal",T3 h 30-T4 h,100.21 % of respective basal and 138.06 % of respective basal and 105.65 % of respective basal and 106.80 % of respective basal and 135.47 % of respective basal and 201.02 % of respective basal and 113.60 % of respective basal
same,"NOREPINEPHRIN (% of respective basal), individual animal",T3 h-T3 h 30,120.36 % of respective basal and 139.04 % of respective basal and 95.95 % of respective basal and 93.13 % of respective basal and 129.61 % of respective basal and 137.11 % of respective basal and 99.05 % of respective basal
same,"NOREPINEPHRIN (% of respective basal), individual animal",T4 h 30-T5 h,91.48 % of respective basal and 153.66 % of respective basal and 179.53 % of respective basal and 95.60 % of respective basal and 107.83 % of respective basal and 118.17 % of respective basal and 146.73 % of respective basal and 113.45 % of respective basal
same,"NOREPINEPHRIN (% of respective basal), individual animal",T4 h-T4 h 30,88.77 % of respective basal and 125.81 % of respective basal and 155.70 % of respective basal and 105.70 % of respective basal and 109.87 % of respective basal and 112.18 % of respective basal and 148.00 % of respective basal and 108.96 % of respective basal
same,"NOREPINEPHRIN (% of respective basal), individual animal",T5 h 30-T6 h,91.57 % of respective basal and 160.34 % of respective basal and 198.08 % of respective basal and 89.28 % of respective basal and 123.68 % of respective basal and 111.49 % of respective basal and 183.96 % of respective basal and 124.88 % of respective basal
same,"NOREPINEPHRIN (% of respective basal), individual animal",T5 h-T5 h 30,62.74 % of respective basal and 157.36 % of respective basal and 184.76 % of respective basal and 91.16 % of respective basal and 116.17 % of respective basal and 125.90 % of respective basal and 153.13 % of respective basal and 108.22 % of respective basal
same,"NOREPINEPHRIN (% of respective basal), individual animal",T6 h-T6 h 30,107.74 % of respective basal and 153.11 % of respective basal and 204.06 % of respective basal and 115.67 % of respective basal and 145.69 % of respective basal and 126.68 % of respective basal
same,"Norepinephrin release, MEAN",T0-T30 min,95.03 % of respective basal
same,"Norepinephrin release, MEAN",T30-T1 h,97.36 % of respective basal
same,"Norepinephrin release, individual animals",T30-T1 h,88.36 % of respective basal and 115.03 % of respective basal and 81.23 % of respective basal and 99.91 % of respective basal and 84.13 % of respective basal and 101.13 % of respective basal and 112.87 % of respective basal and 96.25 % of respective basal
same,"Norepinephrin release, MEAN",T1 h 30-T2 h,89.60 % of respective basal
same,"Norepinephrin release, individual animals",T1 h 30-T2 h,82.12 % of respective basal and 112.19 % of respective basal and 79.22 % of respective basal and 97.76 % of respective basal and 65.77 % of respective basal and 100.10 % of respective basal and 89.95 % of respective basal and 89.72 % of respective basal
same,"Norepinephrin release, MEAN",T1 h-T1 h 30,107.89 % of respective basal
same,"Norepinephrin release, individual animals",T1 h-T1 h 30,172.07 % of respective basal and 112.74 % of respective basal and 81.36 % of respective basal and 103.59 % of respective basal and 89.22 % of respective basal and 99.07 % of respective basal and 110.12 % of respective basal and 94.94 % of respective basal
same,"Norepinephrin release, MEAN",T2 h 30-T3 h,89.71 % of respective basal
same,"Norepinephrin release, individual animals",T2 h 30-T3 h,86.59 % of respective basal and 101.34 % of respective basal and 74.62 % of respective basal and 92.57 % of respective basal and 76.53 % of respective basal and 86.90 % of respective basal and 101.62 % of respective basal and 97.13 % of respective basal
same,"Norepinephrin release, MEAN",T2 h-T2 h 30,89.42 % of respective basal
same,"Norepinephrin release, individual animals",T2 h-T2 h 30,76.71 % of respective basal and 108.71 % of respective basal and 69.68 % of respective basal and 89.57 % of respective basal and 80.18 % of respective basal and 97.07 % of respective basal and 98.74 % of respective basal and 94.71 % of respective basal
